Reference: patent publication US9994522B2, “Amorphous form of apremilast” (MAPI PHARMA LTD., priority 2014, dated 2018)

Experiments:
Format in all cases: physicochemical
[1] = Physical stability on storage, XRPD pattern
Procedure: 3.1 XRPD Method • Details of XRPD method used in the tests are mentioned below: • X-ray Generator: Cu, Kα (λ=1.54179 Å). • Tube Voltage: 40 kV; Current: 40 mA. • Scanning Scope: 4 to 40 deg; • Sample rotation speed: 15 rpm. • Scanning rate: 10 deg/min
(§1) About 40 mg of scaled up amorphous sample prepared by solvent-anti-solvent precipitation (addition of water to acetone) as described in Example 6 was weighed into glass vials. The vials were stored under different testing conditions (25° C. closed vial, 25° C./60% RH, 40° C. closed vial and 40° C./75% RH) 1 week, 2 weeks, 4 weeks, and 3 months. The original scaled up amorphous form was used as a control. XRPD and mDSC were checked at the end of each time point.

[2] = Physical stability on storage, appearance
Procedure: as §1

[3] = Physical stability on storage, mDSC
Procedure: Details of mDSC methods used in the tests are mentioned below: • Method I: Amorphous samples (about 1 mg) were run a modulated DSC using Tzero aluminum pans heated from 0° C. to 200° C. at speed of 2° C./min, with modulation temperature amplitude 1.0° C. and modulation 60 s. • Method II: The two-cycle heating mDSC was run using Tzero aluminum hermetic pans with pinhole with first cycle heated from 0° C. to 160° C. at speed of 2° C./min and the second cycle from 0° C. to 260° C. at speed of 2° C./min.
as §1

[4] = stored 25° C. Closed, 3rd month
[5] = stored 25° C./60% RH, 3rd month
[6] = stored 40° C. Closed, 3rd month
[7] = stored 40° C./75% RH, 3rd month

CCOc1cc([C@@H](CS(C)(=O)=O)N2C(=O)c3cccc(NC(C)=O)c3C2=O)ccc1OC [amorphous apremilast, N-[2-[(1S)-1-(3-ethoxy-4-methoxyphenyl)-2-(methylsulfonyl)ethyl]-2,3-dihydro-1,3-dioxo-1H-isoindol-4-yl]acetamide]
XRPD Pattern ([1]; stored 25° C. Closed, 1st week): Amorphous | XRPD Pattern ([1]; stored 25° C. Closed, 2nd week): Amorphous | XRPD Pattern [1, 4]: Amorphous | XRPD Pattern ([1]; stored 25° C. Closed, 4th week): Amorphous | XRPD Pattern ([1]; stored 25° C./60% RH, 1st week): Amorphous | XRPD Pattern ([1]; stored 25° C./60% RH, 2nd week): Amorphous | XRPD Pattern [1, 5]: Amorphous | XRPD Pattern ([1]; stored 25° C./60% RH, 4th week): Amorphous | XRPD Pattern ([1]; stored 40° C. Closed, 1st week): Amorphous | XRPD Pattern ([1]; stored 40° C. Closed, 2nd week): Amorphous | XRPD Pattern [1, 6]: Amorphous | XRPD Pattern ([1]; stored 40° C. Closed, 4th week): Amorphous | XRPD Pattern ([1]; stored 40° C./75% RH, 1st week): Amorphous | XRPD Pattern ([1]; stored 40° C./75% RH, 2nd week): Amorphous | XRPD Pattern [1, 7]: Amorphous | XRPD Pattern ([1]; stored 40° C./75% RH, 4th week): Amorphous | small spike in the XRPD ([1]; stored 40° C./75% RH, after three months): 13.5 degrees two theta [2θ°] | Appearance ([2]; Initial): Light Yellow | Appearance ([2]; stored 25° C. Closed, 1st week): Light | Appearance ([2]; stored 25° C. Closed, 2nd week): Light | Appearance [2, 4]: Light | Appearance ([2]; stored 25° C. Closed, 4th week): Light | Appearance ([2]; stored 25° C./60% RH, 1st week): Light | Appearance ([2]; stored 25° C./60% RH, 2nd week): Light | Appearance [2, 5]: Light | Appearance ([2]; stored 25° C./60% RH, 4th week): Light | Appearance ([2]; stored 40° C. Closed, 1st week): Light | Appearance ([2]; stored 40° C. Closed, 2nd week): Light | Appearance [2, 6]: Light | Appearance ([2]; stored 40° C. Closed, 4th week): Light | Appearance ([2]; stored 40° C./75% RH, 1st week): Light | Appearance ([2]; stored 40° C./75% RH, 2nd week): Light | Appearance ([2]; stored 40° C./75% RH, 3rd month, listed as Amorphous Apremilast): Darken | Appearance ([2]; stored 40° C./75% RH, 3rd month, listed as apremilast): changed from light yellow to darkened yellow | Appearance ([2]; stored 40° C./75% RH, 4th week): Light | Tg of mDSC (first glass transition temperature) ([3]; Initial): 77.7 °C | Tg of mDSC (second glass transition temperature) ([3]; Initial): 133.5 °C | change of first glass transition temperature (77.7° C.) on storage ([3]; all testing conditions, up to end of the third month): did not change significantly | change of second glass transition temperature (133.6° C.) on storage ([3]; different testing conditions, first week and second week): changed irregularly and even disappeared | heat of fusion peak related to crystalline conversion ([3]; stored 25° C. (closed), 40° C. (closed) and 25° C./60% RH for three months): No heat of fusion peak related to crystalline conversion | Tg of mDSC (first glass transition temperature) ([3]; stored 25° C. Closed, 1st week): 77.7 °C | Tg of mDSC (first glass transition temperature) ([3]; stored 25° C. Closed, 2nd week): 78.5 °C | Tg of mDSC (second glass transition temperature) ([3]; stored 25° C. Closed, 2nd week): 181.3 °C | Tg of mDSC (first glass transition temperature) [3, 4]: 79.0 °C | Tg of mDSC (first glass transition temperature) ([3]; stored 25° C. Closed, 4th week): 78.2 °C | Tg of mDSC (first glass transition temperature) ([3]; stored 25° C./60% RH, 1st week): 78.4 °C | Tg of mDSC (second glass transition temperature) ([3]; stored 25° C./60% RH, 1st week): 171.4 °C | Tg of mDSC (first glass transition temperature) ([3]; stored 25° C./60% RH, 2nd week): 78.8 °C | Tg of mDSC (first glass transition temperature) [3, 5]: 79.9 °C | Tg of mDSC (first glass transition temperature) ([3]; stored 25° C./60% RH, 4th week): 78.9 °C | Tg of mDSC (first glass transition temperature) ([3]; stored 40° C. Closed, 1st week): 79.1 °C | Tg of mDSC (first glass transition temperature) ([3]; stored 40° C. Closed, 2nd week): 79.7 °C | Tg of mDSC (second glass transition temperature) ([3]; stored 40° C. Closed, 2nd week): 170.4 °C | Tg of mDSC (first glass transition temperature) [3, 6]: 83.9 °C | Tg of mDSC (first glass transition temperature) ([3]; stored 40° C. Closed, 4th week): 81.1 °C | Tg of mDSC (first glass transition temperature) ([3]; stored 40° C./75% RH, 1st week): 77.5 °C | Tg of mDSC (second glass transition temperature) ([3]; stored 40° C./75% RH, 1st week): 105.9 °C | Tg of mDSC (first glass transition temperature) ([3]; stored 40° C./75% RH, 2nd week): 77.8 °C | Tg of mDSC (second glass transition temperature) ([3]; stored 40° C./75% RH, 2nd week): 174.5 °C | Tg of mDSC (first glass transition temperature) [3, 7]: 77.7 °C | Tg of mDSC (first glass transition temperature) ([3]; stored 40° C./75% RH, 4th week): 78.0 °C | sharp endothermic peak on mDSC (related to melting point of the crystalline form) ([3]; stored 40° C./75% RH, third month): 153.4 °C
